Experimental data taken from patent US12630600B2 (MEDIMMUNE LIMITED, priority 2022, dated 2026).
Values belong to the compound of their own block, whether it stands above or below them. Starred links: 1 amine or outer side, 2 acyl side, 3 side chain; linkers in the order of their positions; H or OH if unused. Non-standard residues stand in square brackets, D forms with d. Residues, ends and D or L forms follow the SMILES beside them. Groups on a side chain read outwards from the residue. *: point of attachment. C20 diacid = O=C(O)CCCCCCCCCCCCCCCCCCC(=O)*; C18 diacid = O=C(O)CCCCCCCCCCCCCCCCC(=O)*; Dip = N[C@H](C(=O)O)C(c1ccccc1)c1ccccc1; γGlu = O=C(O)[C@H](CCC(=O)[*:2])N[*:1]; Stearoyl = CCCCCCCCCCCCCCCCCC(=O)*; Palmitoyl = CCCCCCCCCCCCCCCC(=O)*; αMeF = C[C@](N)(Cc1ccccc1)C(=O)O; PEG4 = NCCOCCOCCOCCOCCC(=O)O; PEG2 = NCCOCCOCCC(=O)O; AEEA = NCCOCCOCC(=O)O; Aib = CC(C)(N)C(=O)O

Columns and labels:
[1] = molecular target: T1, human GLP-1 receptor (hGLP-1R) (Homo sapiens, UniProt P43220); test: cAMP production (HTRF) in CHO cells expressing human GLP-1 receptor; type: cell-based
T1 construct: expressed in transfected cells; host or cells: CHO
T1 sequence (P43220 24-463): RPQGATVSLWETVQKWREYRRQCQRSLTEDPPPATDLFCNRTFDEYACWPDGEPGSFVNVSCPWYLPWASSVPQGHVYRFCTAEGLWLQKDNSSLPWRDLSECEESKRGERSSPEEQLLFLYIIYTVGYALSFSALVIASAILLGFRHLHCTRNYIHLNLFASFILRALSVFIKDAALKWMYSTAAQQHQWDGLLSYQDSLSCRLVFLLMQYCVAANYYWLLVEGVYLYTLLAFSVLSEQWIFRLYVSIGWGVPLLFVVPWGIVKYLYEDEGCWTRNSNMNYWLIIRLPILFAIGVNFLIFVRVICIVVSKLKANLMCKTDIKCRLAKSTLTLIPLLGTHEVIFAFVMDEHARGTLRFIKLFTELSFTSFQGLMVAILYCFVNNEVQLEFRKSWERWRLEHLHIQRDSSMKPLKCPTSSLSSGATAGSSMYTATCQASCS

[2] = molecular target: T2, human glucagon receptor (hGCGR) (Homo sapiens, UniProt P47871); test: cAMP production (HTRF) in CHO cells expressing human glucagon receptor; type: cell-based; details: Table 7, modification at position 20, CHO cells expressing hGCGR, geometric mean, read-out: hGluc-R EC50
T2 construct: expressed in transfected cells; host or cells: CHO
T2 sequence (P47871 26-477): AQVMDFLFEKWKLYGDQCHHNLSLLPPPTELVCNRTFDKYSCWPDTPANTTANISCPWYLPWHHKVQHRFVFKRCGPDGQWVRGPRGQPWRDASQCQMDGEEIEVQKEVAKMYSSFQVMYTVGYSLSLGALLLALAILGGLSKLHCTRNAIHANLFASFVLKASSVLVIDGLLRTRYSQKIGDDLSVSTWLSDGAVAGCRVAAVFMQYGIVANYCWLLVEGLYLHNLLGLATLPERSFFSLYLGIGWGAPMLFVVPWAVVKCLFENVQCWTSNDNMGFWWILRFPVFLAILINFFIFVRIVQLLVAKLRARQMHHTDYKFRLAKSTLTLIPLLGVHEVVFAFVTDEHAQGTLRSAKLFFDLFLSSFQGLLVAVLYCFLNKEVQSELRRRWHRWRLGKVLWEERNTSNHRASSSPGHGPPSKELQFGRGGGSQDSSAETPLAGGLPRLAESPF

[3] = molecular target: T3, neprilysin (Homo sapiens, UniProt P08473); test: Proteolytic resistance to neprilysin; type: in vitro ADME; details: pH 8.3
T3 construct: purchased R&D Systems 1182-ZNC-010
T3 sequence (P08473 whole entry): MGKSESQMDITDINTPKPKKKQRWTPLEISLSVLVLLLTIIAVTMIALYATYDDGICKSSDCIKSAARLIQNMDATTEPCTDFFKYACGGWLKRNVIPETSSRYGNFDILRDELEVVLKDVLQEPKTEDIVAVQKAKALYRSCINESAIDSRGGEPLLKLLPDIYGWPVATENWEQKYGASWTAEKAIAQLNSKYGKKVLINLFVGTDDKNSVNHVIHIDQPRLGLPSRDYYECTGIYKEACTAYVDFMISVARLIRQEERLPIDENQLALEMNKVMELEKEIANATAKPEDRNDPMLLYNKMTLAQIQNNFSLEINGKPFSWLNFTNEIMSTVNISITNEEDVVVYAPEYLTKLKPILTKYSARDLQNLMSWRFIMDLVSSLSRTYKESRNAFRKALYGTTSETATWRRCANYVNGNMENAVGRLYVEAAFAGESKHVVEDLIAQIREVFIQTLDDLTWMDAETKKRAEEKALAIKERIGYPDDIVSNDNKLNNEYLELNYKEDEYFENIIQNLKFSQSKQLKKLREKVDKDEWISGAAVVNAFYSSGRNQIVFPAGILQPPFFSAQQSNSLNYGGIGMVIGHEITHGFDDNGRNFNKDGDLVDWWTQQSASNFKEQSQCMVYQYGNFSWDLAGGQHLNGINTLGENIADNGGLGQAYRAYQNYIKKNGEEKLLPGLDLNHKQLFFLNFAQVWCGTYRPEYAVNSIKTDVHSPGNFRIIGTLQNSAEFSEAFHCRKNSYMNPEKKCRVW
Description: 10.0 μg (˜10 units) recombinant Neprilysin (R&D Systems: 1182-ZNC-010) was reconstituted to 100 μL (100 μg/mL, ˜100 units/mL) in assay buffer (50 mM Tris, 50 mM NaCl, 50 mM NaHCO3, adjusted to pH 8.3) to give the enzyme stock solution. Peptide stock solutions were prepared to a concentration of ˜250 μM (˜1.0 mg/mL of 4 kDa peptide) in assay buffer. 100 μL (10 μg, ˜10 units) of neprilysin stock solution was added to 100 μL of peptide stock solution (1.0 mg/mL, ˜100 μg of peptide) and the mixture was co-incubated in a temperature regulated incubator at 37° C. for the duration of the experiment. 25 μL aliquots (˜12.5 μg initial peptide) of the peptide-enzyme mixture were periodically withdrawn (t=0, 30 mins, 1 h, 2 h, 4 h and 24 h) and quenched immediately by addition to an equal volume ([…]) of 10% TFA (v/v) in 1:1 water/acetonitrile to arrest proteolytic activity. The quenched aliquot centrifuged at 7800 rpm, and 30 μL of the supernatant was analyzed by analytical RP-HPLC as follows: Analytical RP-HPLC method: Agilent Polaris C8-A column (4.6×100 mm, 3 micron) eluted with a linear binary gradient of 10-90% MeCN (0.1% TFA v/v) in water (0.1% TFA v/v) over either 10 or 15 mins at 1.5 mL min^−1 at 40° C. with detection by UV absorption at 210 nm. Manual integration (AUC) allowed estimation of remaining intact peptide over the time course of the experiment.

[4] = system: wildtype (WT) mice; test: Glucose change in wildtype mice; type: in vivo, mouse; details: s.c.
Description: […] and wildtype (WT) mice at 8-14 weeks of age were singly housed on standard chow diet (Envigo, 2918) and automatic water. They acclimated for a minimum of ˜1-2 weeks, and mice were sorted into groups (n=4-8/group) based on body weight. On day of study, mice were fasted briefly for 2 hrs prior to study start. In some studies, mice were pre-treated with octreotide (BaChem, 10 mg/kg) at 30 minutes prior to peptide injection. Glucose was measured via glucometer at various timepoints including −30 min (prior to octreotide when used in studies), 0 min (before peptide dose), 30, 60, 120, 180, 240, and 360 minutes. Since these studies are acute in nature, mice were re-used for multiple studies (no more than 3) and always allowed at least a minimum wash-out period of 1 week.

EC50 ([1]; Table 7, modification at position 20, CHO cells expressing hGLP-1R, cAMP, geometric mean, read-out: hGLP-1R EC50): 0.347 nM | % Relative Potency Ratio ([1]; Table 7, % GLP-1R activity relative to GLP-1 / % GlucR activity relative to glucagon): 1.5 | EC50 [2]: 0.26 nM | remaining at 4 h, 125 µM ([3]; isolated enzyme neprilysin): 89% | remaining at 24 h, 125 µM ([3]; isolated enzyme neprilysin): 82% | % intact peptide over time, Neprilysin [3]: 100%
SMILES: CC[C@H](C)[C@H](NC(=O)[C@H](Cc1c[nH]c2ccccc12)NC(=O)[C@H](CCC(N)=O)NC(=O)[C@@H](NC(=O)[C@H](Cc1ccccc1)NC(=O)[C@H](CC(=O)O)NC(=O)[C@H](CCCCNC(=O)COCCOCCNC(=O)COCCOCCNC(=O)CC[C@H](NC(=O)CC[C@H](NC(=O)CCCCCCCCCCCCCCCCCCC(=O)O)C(=O)O)C(=O)O)NC(=O)[C@H](C)NC(=O)[C@H](C)NC(=O)[C@H](CCCNC(=N)N)NC(=O)[C@H](CO)NC(=O)[C@H](CC(=O)O)NC(=O)[C@H](CC(C)C)NC(=O)[C@](C)(Cc1ccccc1)NC(=O)[C@H](CCCCN)NC(=O)[C@H](CO)NC(=O)[C@@H](NC(=O)[C@H](CC(=O)O)NC(=O)[C@H](CO)NC(=O)[C@@H](NC(=O)[C@H](Cc1ccccc1)NC(=O)[C@H](CO)NC(=O)CNC(=O)[C@H](Cc1c[nH]cn1)NC(=O)C(C)(C)NC(=O)[C@@H](N)Cc1c[nH]cn1)[C@@H](C)O)C(C)C)C(C)C)C(=O)N[C@@H](C)C(=O)N[C@@H](CC(N)=O)C(=O)N[C@H](C(N)=O)[C@@H](C)O [Peptide 290] (H-H[Aib]HGSFTSDVSK[αMeF]LDSRAAK([AEEA-AEEA-γGlu-γGlu-C20 diacid])DFVQWIANT-NH2; N-terminus assumed)

SMILES: CC(C)C[C@H](NC(=O)[C@H](Cc1c[nH]c2ccccc12)NC(=O)[C@H](CCCNC(=N)N)NC(=O)[C@@H](NC(=O)[C@H](Cc1ccccc1)NC(=O)[C@H](CC(=O)O)NC(=O)[C@H](CCC(N)=O)NC(=O)[C@H](C)NC(=O)[C@H](CCCNC(=N)N)NC(=O)[C@H](CCCCNC(=O)COCCOCCNC(=O)COCCOCCNC(=O)CC[C@H](NC(=O)CCCCCCCCCCCCCCCCC(=O)O)C(=O)O)NC(=O)[C@@H](NC(=O)[C@H](CC(=O)O)NC(=O)[C@H](CC(C)C)NC(=O)[C@](C)(Cc1ccccc1)NC(=O)[C@H](CCCCN)NC(=O)[C@H](CO)NC(=O)[C@@H](NC(=O)[C@H](CC(=O)O)NC(=O)[C@H](CO)NC(=O)[C@@H](NC(=O)[C@H](Cc1ccccc1)NC(=O)[C@@H](NC(=O)CNC(=O)[C@H](CCC(N)=O)NC(=O)C(C)(C)NC(=O)[C@@H](N)Cc1c[nH]cn1)[C@@H](C)O)[C@@H](C)O)C(C)C)[C@@H](C)O)C(C)C)C(=O)N[C@@H](CC(C)C)C(=O)N[C@@H](CCC(=O)O)C(=O)NC(C)(C)C(=O)NCC(=O)O [Peptide 140] (H-H[Aib]QGTFTSDVSK[αMeF]LDTK([AEEA-AEEA-γGlu-C18 diacid])RAQDFVRWLLE[Aib]G-OH; N-terminus assumed)
WT % glucose change 60 min ([4]; 30 nmol/kg, no somatostatin pretreatment): −29.0%

SMILES: CCCCCCCCCCCCCCCC(=O)N[C@@H](CCC(=O)N[C@@H](CCC(=O)NCCOCCOCCOCCOCCC(=O)NCCCC[C@H](NC(=O)[C@H](CO)NC(=O)[C@H](CC(=O)O)NC(=O)[C@H](CC(C)C)NC(=O)[C@@H](NC(=O)[C@H](CCCCN)NC(=O)[C@H](CO)NC(=O)[C@@H](NC(=O)[C@H](CC(=O)O)NC(=O)[C@H](CO)NC(=O)[C@@H](NC(=O)[C@](C)(Cc1ccccc1)NC(=O)[C@H](CO)NC(=O)CNC(=O)[C@H](CCC(N)=O)NC(=O)C(C)(C)NC(=O)[C@@H](N)Cc1c[nH]cn1)[C@@H](C)O)C(C)C)C(c1ccccc1)c1ccccc1)C(=O)N[C@@H](CCCNC(=N)N)C(=O)N[C@@H](C)C(=O)N[C@@H](CCC(N)=O)C(=O)N[C@@H](CC(=O)O)C(=O)N[C@@](C)(Cc1ccccc1)C(=O)N[C@H](C(=O)N[C@@H](CCC(=O)O)C(=O)NC(C)(C)C(=O)N[C@@H](CC(C)C)C(=O)N[C@@H](CCC(=O)O)C(=O)N[C@@H](C)C(=O)NCC(=O)NCC(N)=O)C(C)C)C(=O)O)C(=O)O [Peptide 43] (H-H[Aib]QGS[αMeF]TSDVSK[Dip]LDSK([PEG4-γGlu-γGlu-Palmitoyl])RAQD[αMeF]VE[Aib]LEAGG-NH2; N-terminus assumed)
WT % glucose change 120 min ([4]; 3 nmol/kg, no somatostatin pretreatment): −56.0%

SMILES: CCCCCCCCCCCCCCCCCC(=O)N[C@@H](CCC(=O)N[C@@H](CCC(=O)NCCOCCOCCC(=O)NCCOCCOCCC(=O)NCCCC[C@H](NC(=O)[C@H](CO)NC(=O)[C@H](CC(=O)O)NC(=O)[C@H](CC(C)C)NC(=O)[C@@H](NC(=O)[C@H](CCCCN)NC(=O)[C@H](CO)NC(=O)[C@@H](NC(=O)[C@H](CC(=O)O)NC(=O)[C@H](CO)NC(=O)[C@@H](NC(=O)[C@](C)(Cc1ccccc1)NC(=O)[C@H](CO)NC(=O)CNC(=O)[C@H](CCC(N)=O)NC(=O)[C@H](CO)NC(=O)[C@@H](N)Cc1c[nH]cn1)[C@@H](C)O)C(C)C)C(c1ccccc1)c1ccccc1)C(=O)N[C@@H](C)C(=O)N[C@@H](C)C(=O)N[C@@H](CCC(N)=O)C(=O)N[C@@H](CC(=O)O)C(=O)N[C@@](C)(Cc1ccccc1)C(=O)N[C@H](C(=O)N[C@@H](CCC(=O)O)C(=O)NC(C)(C)C(=O)N[C@H](C(=O)N[C@@H](C)C(=O)N[C@@H](CC(N)=O)C(=O)N[C@H](C(N)=O)[C@@H](C)O)[C@@H](C)CC)C(C)C)C(=O)O)C(=O)O [Peptide 49] (H-HSQGS[αMeF]TSDVSK[Dip]LDSK([PEG2-PEG2-γGlu-γGlu-Stearoyl])AAQD[αMeF]VE[Aib]IANT-NH2; N-terminus assumed)
WT % glucose change 120 min ([4]; 10 nmol/kg, somatostatin pretreatment 30 min prior to cpd): −1.2%

% intact peptide over time, Neprilysin [3]: 100%
SMILES: CC[C@H](C)[C@H](NC(=O)C(C)(C)NC(=O)[C@H](CCC(=O)O)NC(=O)[C@@H](NC(=O)[C@](C)(Cc1ccccc1)NC(=O)[C@H](CC(=O)O)NC(=O)[C@H](CCCNC(=N)N)NC(=O)[C@H](C)NC(=O)[C@H](C)NC(=O)[C@H](CCCCNC(=O)COCCOCCNC(=O)COCCOCCNC(=O)CC[C@H](NC(=O)CCCCCCCCCCCCCCCCC(=O)O)C(=O)O)NC(=O)[C@H](CO)NC(=O)[C@H](CC(=O)O)NC(=O)[C@H](CC(C)C)NC(=O)[C@](C)(Cc1ccccc1)NC(=O)[C@H](CCCCN)NC(=O)[C@H](CO)NC(=O)[C@@H](NC(=O)[C@H](CC(=O)O)NC(=O)[C@H](CO)NC(=O)[C@@H](NC(=O)[C@](C)(Cc1ccccc1)NC(=O)[C@H](CO)NC(=O)CNC(=O)[C@H](Cc1c[nH]cn1)NC(=O)C(C)(C)NC(=O)[C@@H](N)Cc1c[nH]cn1)[C@@H](C)O)C(C)C)C(C)C)C(=O)N[C@@H](C)C(=O)N[C@@H](CC(N)=O)C(=O)N[C@H](C(N)=O)[C@@H](C)O [Peptide 15] (H-H[Aib]HGS[αMeF]TSDVSK[αMeF]LDSK([AEEA-AEEA-γGlu-C18 diacid])AARD[αMeF]VE[Aib]IANT-NH2; N-terminus assumed)

% intact peptide over time, Neprilysin [3]: 100%
SMILES: CC[C@H](C)[C@H](NC(=O)C(C)(C)NC(=O)[C@H](CCC(N)=O)NC(=O)[C@@H](NC(=O)[C@](C)(Cc1ccccc1)NC(=O)[C@H](CC(=O)O)NC(=O)[C@H](CCCCNC(=O)COCCOCCNC(=O)COCCOCCNC(=O)CC[C@H](NC(=O)CC[C@H](NC(=O)CCCCCCCCCCCCCCCCCCC(=O)O)C(=O)O)C(=O)O)NC(=O)[C@H](C)NC(=O)[C@H](C)NC(=O)[C@H](CCCNC(=N)N)NC(=O)[C@H](CO)NC(=O)[C@H](CC(=O)O)NC(=O)[C@H](CC(C)C)NC(=O)[C@H](Cc1ccc(O)cc1)NC(=O)[C@H](CCCCN)NC(=O)[C@H](CO)NC(=O)[C@@H](NC(=O)[C@H](CC(=O)O)NC(=O)[C@H](CO)NC(=O)[C@@H](NC(=O)[C@](C)(Cc1ccccc1)NC(=O)[C@H](CO)NC(=O)CNC(=O)[C@H](Cc1c[nH]cn1)NC(=O)C(C)(C)NC(=O)[C@@H](N)Cc1c[nH]cn1)[C@@H](C)O)C(C)C)C(C)C)C(=O)N[C@@H](C)C(=O)N[C@@H](CC(N)=O)C(=O)N[C@H](C(N)=O)[C@@H](C)O [Peptide 283] (H-H[Aib]HGS[αMeF]TSDVSKYLDSRAAK([AEEA-AEEA-γGlu-γGlu-C20 diacid])D[αMeF]VQ[Aib]IANT-NH2)
